Data reported in the supplement of paper PMC10307832.

Experiments:
Test in all cases: relative viability (nuclei count vs DMSO), 5 days (fraction); higher = more cells survive
Carfilzomib + Vorinostat = compound: CC(C)C[C@H](NC(=O)[C@H](CCc1ccccc1)NC(=O)CN1CCOCC1)C(=O)N[C@@H](Cc1ccccc1)C(=O)N[C@@H](CC(C)C)C(=O)[C@@]1(C)CO1 [Carfilzomib] + O=C(CCCCCCC(=O)Nc1ccccc1)NO [Vorinostat] (partner 1 µM)
Method in brief: (§1)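 Lung cancer cell lines were seeded in 1536-well plates and dosed by pin tool the next day, with either a single drug or a fixed anchor-drug dose combined with five library-drug doses (not always all listed) spaced in √10 steps. Five days later, one step fixed the cells and stained their nuclei (final 0.05% Triton X-100, 1% formaldehyde, 1 ug/ml Hoechst), and nuclei were counted on 4× images. Relative viability is the nuclei count in treated wells divided by the count in vehicle wells, and each value is the median of duplicate plates.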

Carfilzomib + Bortezomib = compound: CC(C)C[C@H](NC(=O)[C@H](CCc1ccccc1)NC(=O)CN1CCOCC1)C(=O)N[C@@H](Cc1ccccc1)C(=O)N[C@@H](CC(C)C)C(=O)[C@@]1(C)CO1 [Carfilzomib] + CC(C)C[C@H](NC(=O)[C@H](Cc1ccccc1)NC(=O)c1cnccn1)B(O)O [Bortezomib] (partner 0.002 µM)
Method in brief: as §1

Olaparib + Tozasertib = compound: O=C(c1cc(Cc2n[nH]c(=O)c3ccccc23)ccc1F)N1CCN(C(=O)C2CC2)CC1 [Olaparib] + Cc1cc(Nc2cc(N3CCN(C)CC3)nc(Sc3ccc(NC(=O)C4CC4)cc3)n2)n[nH]1 [Tozasertib] (partner 0.1 µM)
Method in brief: as §1

Olaparib + Trametinib = compound: O=C(c1cc(Cc2n[nH]c(=O)c3ccccc23)ccc1F)N1CCN(C(=O)C2CC2)CC1 [Olaparib] + CC(=O)Nc1cccc(-n2c(=O)n(C3CC3)c(=O)c3c(Nc4ccc(I)cc4F)n(C)c(=O)c(C)c32)c1 [Trametinib] (partner 0.02 µM)
Method in brief: as §1

Cell Line	relative viability (Carfilzomib + Vorinostat; first compound 0.001 µM)	relative viability (Carfilzomib + Vorinostat; first compound 0.003162 µM)	relative viability (Carfilzomib + Vorinostat; first compound 0.01 µM)	relative viability (Carfilzomib + Vorinostat; first compound 0.03162 µM)	relative viability (Carfilzomib + Vorinostat; first compound 0.1 µM)	relative viability (Carfilzomib + Bortezomib; first compound 0.001 µM)	relative viability (Carfilzomib + Bortezomib; first compound 0.003162 µM)	relative viability (Carfilzomib + Bortezomib; first compound 0.01 µM)	relative viability (Carfilzomib + Bortezomib; first compound 0.03162 µM)	relative viability (Carfilzomib + Bortezomib; first compound 0.1 µM)	relative viability (Olaparib + Tozasertib; first compound 0.08 µM)	relative viability (Olaparib + Tozasertib; first compound 0.253 µM)	relative viability (Olaparib + Tozasertib; first compound 2.53 µM)	relative viability (Olaparib + Tozasertib; first compound 8 µM)	relative viability (Olaparib + Trametinib; first compound 0.08 µM)	relative viability (Olaparib + Trametinib; first compound 0.253 µM)	relative viability (Olaparib + Trametinib; first compound 2.53 µM)	relative viability (Olaparib + Trametinib; first compound 8 µM)
201T	0.929	1	0.985	0.93	0.514	1.09	1.06	1.1	1.09	0.732	1.05	0.91	0.919	0.879	0.682	0.695	0.726	0.668
A-427	0.874	0.859	0.842	0.307	0.15	0.995	0.963	0.727	0.436	0.131	0.196	0.209	0.188	0.163	0.782	0.741	0.719	0.601
ABC-1	0.706	0.534	0.35	0.274	0.257	0.334	0.231	0.242	0.27	0.225	0.22	0.149	0.198	0.182	–	–	–	–
BEN	0.549	0.503	0.552	0.598	0.273	0.518	0.929	0.883	0.485	0.281	0.53	0.48	0.529	0.48	1.11	0.991	1.07	1.1
CAL-12T	0.722	0.794	0.77	0.487	0.121	–	1.17	1.13	0.691	0.195	0.345	0.259	0.281	0.235	0.351	0.292	0.417	0.305
COR-L23	0.454	0.438	0.212	0.0648	0.0718	0.94	0.877	0.253	0.0785	0.0696	0.22	0.192	0.176	0.12	0.661	0.642	0.498	0.451
Calu-6	–	–	–	–	–	0.886	0.713	0.299	0.119	0.106	–	–	–	–	–	–	–	–
EBC-1	–	–	–	–	–	0.524	0.317	0.149	0.119	0.168	–	–	–	–	–	–	–	–
IA-LM	0.921	0.889	0.932	0.193	0.0116	0.843	0.673	0.584	0.0124	0.0142	–	–	–	–	–	–	–	–
LK-2	0.257	0.345	0.177	0.189	0.175	–	–	–	–	–	0.161	0.178	0.164	0.171	0.887	0.701	0.888	0.788
NCI-H358	0.69	0.692	0.515	0.0656	0.0773	–	–	–	–	–	0.101	0.119	0.106	0.116	0.13	0.147	0.145	0.12
NCI-H522	0.888	1.01	0.841	0.426	0.412	–	–	–	–	–	0.513	0.541	0.593	0.621	0.679	0.733	0.711	0.715
NCI-H1299	–	–	–	–	–	0.997	1.09	1.02	0.986	0.156	–	–	–	–	–	–	–	–
NCI-H1395	–	0.791	0.469	0.306	0.316	–	–	–	–	–	0.816	0.657	0.598	0.548	1.11	0.876	0.852	0.629
NCI-H1563	–	–	–	–	–	0.815	0.985	0.836	0.513	0.477	–	–	–	–	–	–	–	–
NCI-H1623	–	–	–	–	–	–	–	–	–	–	0.474	0.446	0.493	0.413	–	–	–	–
NCI-H1648	0.64	0.613	0.954	0.28	0.212	–	–	–	–	–	–	0.482	–	0.556	0.455	0.513	–	0.418
NCI-H1703	–	–	–	–	–	0.216	0.167	0.156	0.0967	0.129	–	–	–	–	–	–	–	–
NCI-H1792	–	–	–	–	–	0.962	1	0.919	0.979	0.559	–	–	–	–	0.461	0.448	0.382	0.398
NCI-H1944	0.523	0.744	0.527	0.505	0.215	–	–	–	–	–	0.217	0.198	0.228	0.231	0.435	0.376	0.372	0.328
NCI-H2170	0.751	0.86	0.916	0.404	0.152	–	–	–	–	–	0.81	0.806	0.705	0.629	0.937	0.925	0.883	0.8
NCI-H2342	0.731	0.675	0.876	0.733	0.421	–	–	–	–	–	0.458	0.552	0.479	0.416	0.8	0.871	0.802	0.742
SK-MES-1	1.11	1.12	1.15	0.579	0.156	–	–	–	–	–	0.962	0.828	0.818	0.562	0.577	0.539	0.608	0.616
SW 900	–	0.469	0.198	0.168	0.188	–	–	–	–	–	0.516	0.395	0.536	0.483	0.867	0.758	0.85	0.815
